These results are taken from paper PMC10714399, “Open Source Antibiotics: Simple Diarylimidazoles Are Potent against Methicillin-Resistant Staphylococcus aureus” (ACS Infectious Diseases, 2023).

Data set [1] deals with Enterococcus faecalis ATCC 51299 (vanA-positive; vancomycin-resistant). Description: In vitro antibacterial activity, MIC (UCL), VRE. It is filed as cell-based. As to conditions: read-out: VRE MIC (UCL). In short, it runs like this: (§1)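 Growth inhibition was read as MIC across a two-fold range of 32 down to 0.03 μg/mL in isosensitest broth. Bacteria from overnight plates were set to A600 0.1 in PBS, about 1 × 10^8 CFU/mL, and diluted 1:100 before inoculation.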

A short description of data set [2]: Human liver microsome intrinsic clearance. The class given is in vitro ADME. The settings on record: human liver microsomes, NEU. The text has this:
(§2) To guide our initial SAR exploration work, we obtained liver microsomal intrinsic clearance data for 5 of the 18 compounds assayed by CO-ADD (Supporting Information - CDCO Report and Supporting Information - Biology). We then acquired intrinsic clearance (CLint), plasma protein binding (PPB), and solubility data on further compounds throughout the SAR campaign (Supporting Information - Biology, Tables S3 and S4).
(§3) Table S4. ADME and Pharmacokinetics: compounds only appearing in the Supplementary […]
(§4) MRSA Aqueous HLM CLint Rat Hep CLint
(§5) Cmpd MIC Solubility Human PPB (%) (µL/min/mg (µL/min/10x6 LogD7.4
(§6) (µg/mL) (µM) protein) cells)
(§7) ADME and toxicity for compounds were measured according to procedures outlined in the manuscript submitted in parallel to this one;2 other procedures were used for those compounds analysed by Monash University (in vitro ADME) or UCL (toxicity), both described in the main

Data set [3] can be described thus: Rat hepatocyte intrinsic clearance. It is filed as in vitro ADME. The settings on record: rat hepatocytes, NEU.
From the text: as §2, §3, §4, §5, §6, §7

The nature of data set [4]: Human plasma protein binding (PPB). It is filed as in vitro ADME. As to conditions: human, plasma, human plasma, NEU; read-out: Human PPB (NEU) (converted).
From the text: as §2, §3, §4, §5, §6, §7

Data set [5] can be described thus: Aqueous solubility. The class given is physicochemical. The settings on record: NEU; for solubility: thermodynamic from solid, read-out: Aqueous Solubility (NEU).
From the text: To guide our initial SAR exploration work, we obtained liver microsomal intrinsic clearance data for 5 of the 18 compounds assayed by CO-ADD (Supporting Information - CDCO Report and Supporting Information - Biology). We then acquired intrinsic clearance (CLint), plasma protein binding (PPB), and solubility data on further compounds throughout the SAR campaign (Supporting Information - Biology, Tables S3 and S4). […] The more polar compounds (lower LogD) had reduced PPB and were more metabolically stable.
as §3, §4, §5, §6, §7

Data set [6] has as its system Staphylococcus aureus NCTC 13373 (mecA-positive; methicillin-resistant). Briefly: In vitro antibacterial activity, MIC (UCL School of Pharmacy assay), MRSA. It is filed as cell-based. As to conditions: Staphylococcus aureus, UCL; read-out: MRSA MIC (UCL). In short, it runs like this: as §1
The test system of data set [7] is MRC-5SV2 (human lung fibroblast cell line). Description: Toxicity against MRC-5SV2. The class given is cell-based. The settings on record: MRC5 cells. How it is done:
as §7

The test system of data set [8] is PMM (primary mouse macrophages). Briefly: Toxicity against PMM. The class given is cell-based. As to conditions: PMM. How it is done: as §7

Converted amounts (≈) assume the structure as drawn.

What is called MIC is the smallest concentration in the dilution series that meets the test's criterion for growth inhibition. As usually defined, the solubility is the concentration that dissolves in the medium under given conditions.

For the compound `CS(=O)(=O)c1ccc(-c2c(-c3ccccn3)nc3n2CCC3)cc1` [OSA_000837], the MIC in data set [1] and in data set [6] was greater than 32 µg/mL each time. The “HLM CLint (NEU)” value in data set [2] is on record as less than 3 uL/min/mg protein. In addition, in data set [3], the “Rat Hep CLint (NEU)” value was less than 1 uL/min/10x6 cells. Further, the fraction unbound in data set [4] was 0.4. The “Aqueous Solubility (NEU)” value in data set [5] amounted to 317 µM.

For `C[S+]([O-])c1ccc(-c2c(-c3ccccn3)nc3n2CCC3)cc1` (stereo not shown) [OSA_000838], the MIC in data set [1] and in data set [6] was greater than 32 µg/mL throughout. Besides, the “HLM CLint (NEU)” value in data set [2] is on record as less than 3 uL/min/mg protein. Also, the “Rat Hep CLint (NEU)” value in data set [3] is recorded as less than 1 uL/min/10x6 cells. In addition, the fraction unbound in data set [4] is 0.45. In addition, in data set [5], the “Aqueous Solubility (NEU)” value was found to be 756 µM.

Regarding `N#Cc1cccc(-c2c(-c3ccccn3)nc3n2CCC3)c1` [OSA_000864], the MIC in data set [1] and in data set [6] was greater than 32 µg/mL in each case. The “HLM CLint (NEU)” value in data set [2] is reported as 43.7 uL/min/mg protein. Besides, the “Rat Hep CLint (NEU)” value in data set [3] is on record as 23.2 uL/min/10x6 cells. Besides, the fraction unbound in data set [4] was 0.24. The solubility in data set [5] is 37 µM (≈ 10.6 µg/mL).

With `FC(F)(F)Oc1ccc(-c2c(-c3ccccn3)nc3n2CCC3)cc1` [OSA_000868], the figures for the MIC in data set [1] and in data set [6] were 32 µg/mL (≈ 92.7 µM) and 8 µg/mL (≈ 23.2 µM), respectively. Besides, the “HLM CLint (NEU)” value in data set [2] stood at 62.2 uL/min/mg protein. Further, the “Rat Hep CLint (NEU)” value in data set [3] stood at 54.1 uL/min/10x6 cells. For the same compound, the fraction unbound in data set [4] was 0.044. The solubility in data set [5] is 38 µM (≈ 13.1 µg/mL).

`Clc1ccc(-c2c(-c3ccccn3)nc3n2CCC3)cc1` [OSA_000875]: the MIC in data set [1] was found to be 16 µg/mL (≈ 54.1 µM); in data set [6] it was 4 µg/mL (≈ 13.5 µM). Also, the microsomal CLint in data set [2] (read-out: HLM CLint (NEU)) amounted to 168 µL/min/mg. Moreover, the “Rat Hep CLint (NEU)” value in data set [3] was 21.9 uL/min/10x6 cells. Further, the fraction unbound in data set [4] was 0.033. For the same compound, the solubility in data set [5] was 4 µM (≈ 1.18 µg/mL). Moreover, the “MRC5 TC50” value in data set [7] stood at 5.45 µM. Besides, the “PMM TC50” value in data set [8] was 8 µM.

Consider `Clc1ccc(-c2c(-c3ccccn3)nc3n2CCC3)cc1Cl` [OSA_000876], for which the MIC in data set [1] and in data set [6] was 8 µg/mL (≈ 24.2 µM) in each case. In addition, the “HLM CLint (NEU)” value in data set [2] came out at 100 uL/min/mg protein. Also, the “Rat Hep CLint (NEU)” value in data set [3] amounted to 37.7 uL/min/10x6 cells. Besides, in data set [4], the fraction unbound is 0.015. Also, the solubility in data set [5] was determined as 3 µM (≈ 0.991 µg/mL).

Turning to `CN(C)C(=O)c1ccc(-c2c(-c3ccccn3)nc3n2CCC3)cc1` [OSA_000974], the MIC in data set [1] and in data set [6] was greater than 32 µg/mL in each case. In addition, the “HLM CLint (NEU)” value in data set [2] is on record as less than 3 uL/min/mg protein. In addition, in data set [3], the “Rat Hep CLint (NEU)” value is on record as less than 1 uL/min/10x6 cells. In data set [4], the fraction unbound is 0.55. Also, the “Aqueous Solubility (NEU)” value in data set [5] is 782 µM.

Regarding `N#Cc1ccc(-c2c(-c3ccccn3)nc3n2CCC3)cc1` [OSA_000975], the MIC worked out at 16 µg/mL (≈ 55.9 µM) in data set [1] and 4 µg/mL (≈ 14 µM) in data set [6]. In data set [2], the “HLM CLint (NEU)” value is given as 99.1 uL/min/mg protein. In addition, the “Rat Hep CLint (NEU)” value in data set [3] is 7.99 uL/min/10x6 cells. The fraction unbound in data set [4] is 0.29. For the same compound, the “Aqueous Solubility (NEU)” value in data set [5] stood at 38 µM. For the same compound, in data set [7], the “MRC5 TC50” value turned out to be 25.9 µM. In addition, the “PMM TC50” value in data set [8] was found to be 64 µM.

With `Cc1cccc(-c2c(-c3ccccn3)nc3n2CCC3)c1` [OSA_000976], the results for the MIC in data set [1] and in data set [6] were 32 µg/mL (≈ 116 µM) and 8 µg/mL (≈ 29.1 µM), respectively. The “HLM CLint (NEU)” value in data set [2] came out at 76.1 uL/min/mg protein. Besides, the “Rat Hep CLint (NEU)” value in data set [3] is 62.5 uL/min/10x6 cells. For the same compound, in data set [4], the fraction unbound was 0.061. Further, in data set [5], the solubility was 556 µM (≈ 153 µg/mL).
